In one data set the target is T1, bromodomain of BRD9 (Homo sapiens, UniProt Q9H8M2).
T1 construct: made in house; host or cells: E. coli
In words: AlphaLISA competition assay, binding to BRD9. The protocol:
An AlphaLISA® (Perkin Elmer Inc., Dumfries, VA, USA) displacement assay was used to determine the binding affinity of Compound 1 to purified bromodomain of BRD9 protein.
Human histidine-tagged (His-tag) bromodomain of BRD9 was expressed in E. coli and purified, with a concentration of 1.1 mg/mL. The bromodomain of BRD9 was labeled with an AlphaLISA® donor bead (Catalog No. AS101R, Perkin Elmer Inc., Dumfries, VA, USA) attached via a His-tag on the protein. A potent BRD9 ligand was chemically modified to attach a biotin tag. The biotin tag was subsequently used to attach a streptavidin-labeled AlphaLISA® acceptor bead (Catalog No. AL125M, Perkin Elmer Inc., Dumfries, VA, USA).
Determination of the binding constant (Kd) of Compound 1 to the bromodomain of BRD9 was carried out using an AlphaLISA® competition assay, where binding of Compound 1 to BRD9 was measured via loss of signal upon displacement of biotinylated BRD9 ligand tagged with the AlphaLISA® acceptor bead. […]
Response (normalized signal), R, for each well containing the test compounds was calculated using the averaged signal from negative and positive control wells: […]
Compound 1 competed with fluorescence probe for binding to bromodomain of BRD9. […]

Data set [1] in a line: Crystallization from hot saturated solutions by fast cooling. In kind it is physicochemical. As to conditions: for Comments / XRPD: hot saturated solution. The protocol:
Samples with no precipitates were put in −20° C. freezer for crystallization. Precipitates were collected by filtration. The solid part (wet cake) were investigated by XRPD.

We go through one molecule from patent publication US20240245677A1, “SELECTED COMPOUNDS FOR TARGETED DEGRADATION OF BRD9” (C4 THERAPEUTICS, INC., priority 2021, published 2024).

The structures appear in SMILES notation. Where “and” joins values, the source holds several entries; their conditions need not be identical. Identical values can stand only once. Like-named read-outs stand apart in the source and are kept apart here.

T1 sequence (Q9H8M2 136-240 limits assumed): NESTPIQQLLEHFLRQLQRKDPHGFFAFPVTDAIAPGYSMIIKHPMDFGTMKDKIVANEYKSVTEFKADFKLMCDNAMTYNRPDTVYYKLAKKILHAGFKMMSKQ

In the case of `COc1cc(-c2cn(C)c(=O)c(C)c2C)cc(OC)c1CN1CC[C@H](N2CCN(c3ccc(N[C@H]4CCC(=O)NC4=O)cc3F)CC2)C(F)(F)C1` [Compound 1, (S)-3-((4-(4-((S)-1-(2,6-dimethoxy-4-(1,4,5-trimethyl-6-oxo-1,6-dihydropyridin-3-yl)benzyl)-3,3-difluoropiperidin-4-yl)piperazin-1-yl)-3-fluorophenyl)amino)-piperidine-2,6-dione], the Kd at bromodomain of BRD9 (each occasion in duplicate, read-out: Kd, individual test occasion) was 157 nM and 131 nM and 129 nM; on bromodomain of BRD9 (n=3, read-out: Kd (geometric mean), binding affinity to BRD9), 139 nM. The “Comments: form after seeding” value in data set [1] (2-MeTHF, add Pattern G as seeds, slurry for 5 days) is reported as “Pattern G”. Further, the Comments result in data set [1] (2-MeTHF) and in data set [1] (Methanol) was “Clear solution” each time. Moreover, the XRPD result is “Pattern B” in data set [1] (Acetone), “Pattern F” in data set [1] (Ethanol) and “Pattern F” in data set [1] (Ethyl acetate).
